Measurements taken from patent US20110144079A1, “ANTIMICROBIAL SYSTEM” (priority 2008, published 2011).
Where two headings read alike, the source gives them in different places. Marks after values point to notes of the source that are not given here.

What was measured:
[1] = system: B. cenocepacia J2315; assay: Broth microdilution MIC/MBC; format: cell-based; settings: Burkholderia cenocepacia
Procedure, shortened: (§1)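 Sterile-filtered imidazolium salts are diluted two-fold (0.0000625–1% w/v) in MHB, challenged with 2×10^5 CFU/ml bacteria, and held aerobically at 37 °C for 24 h. Bactericidal endpoints use 24 h MHA subculture of clear wells, requiring 99.9% kill.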

[2] = system: C. tropicalis NCTC 7393; assay: Broth microdilution MIC/MBC; format: cell-based; settings: Candida tropicalis, NCTC7393
Procedure, shortened: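 Cultures grown overnight in MHB were standardised by OD550 to 1×10^8 CFU/ml, then diluted to a final 2×10^5 CFU/ml. This inoculum was added to imidazolium salt dilutions spanning 0.0000625–1% w/v in MHB and incubated aerobically for 24 h at 37 °C. Wells without growth were plated on MHA for 24 h to find the MBC.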

[3] = system: E-MRSA 15; assay: Broth microdilution MIC/MBC; format: cell-based
Procedure, shortened: as §1

[4] = system: E. coli NCTC 8196; assay: Broth microdilution MIC/MBC; format: cell-based; settings: Escherichia coli, NCTC8196
Procedure, shortened: as §1

[5] = system: K. aerogenes NCTC 7427; assay: Broth microdilution MIC/MBC; format: cell-based; settings: Klebsiella aerogenes, NCTC7427
Procedure, shortened: as §1

[6] = system: P. aeruginosa PA01; assay: Broth microdilution MIC/MBC; format: cell-based; settings: for MIC: P. aeruginosa PA01, 24 h at 37° C.
Procedure, shortened: as §1

[7] = system: P. mirabilis NCTC 12442; assay: Broth microdilution MIC/MBC; format: cell-based; settings: Proteus mirabilis, NCTC12442
Procedure, shortened: as §1

[8] = system: S. aureus ATCC 29213; assay: Broth microdilution MIC/MBC; format: cell-based; settings: Staphylococcus aureus, ATCC29213
Procedure, shortened: as §1

[9] = system: S. epidermidis ATCC 12228; assay: Broth microdilution MIC/MBC; format: cell-based; settings: Staphylococcus epidermidis, ATCC12228
Procedure, shortened: as §1

[10] = system: S. epidermidis ATCC 35984; assay: Broth microdilution MIC/MBC; format: cell-based; settings: Staphylococcus epidermidis
Procedure, shortened: as §1

[11] = system: MRSA; assay: Broth microdilution MIC/MBC; format: cell-based, methicillin-resistant S. aureus; settings: Staphylococcus aureus
Protocol: (§2) Broth microdilution tests were performed according to NCCLS guidelines. Serial two-fold dilutions of each imidazolium salt (from an original working solution which had been 0.22 μm sterile filtered) in Mueller-Hinton Broth (MHB) (100 μl) were prepared in 96-well micro-titre plates over the range 0.0000625-1% w/v. The inoculum to be tested was prepared by adjusting the turbidity of an actively overnight growing broth culture in MHB to an optical density at 550 nm equivalent to 1×10^8 CFU/ml. The suspension was further diluted to provide a final inoculum density of 2×10^5 CFU/ml in MHB as verified by total viable count. The inoculum to be tested (100 μl, 2×10^5 CFU ml^−1) was added to each well of the microdilution trays which were incubated aerobically for 24 h at 37° C. Positive and negative growth controls were included in every assay (6 replicates). After determining the MICs, minimum bactericidal concentrations (MBCs) were determined by spreading 20 μl of suspension from wells showing no growth onto MHA plates, which were then incubated for 24 h and examined for 99.9% killing.

[12] = system: E. coli PIII; assay: Broth microdilution MIC; format: cell-based; settings: Escherichia coli
Protocol: as §2

[13] = system: MRSA; assay: Zone of inhibition on MRSA-seeded agar culture plates; format: cell-based, methicillin-resistant S. aureus; settings: 40 μL of ionic liquid applied to MRSA-seeded agar culture plates
Description: As used herein, CyMIMCI, refers to 1-alkyl-3-methyl-imidazolium chloride ionic liquids, wherein the alkyl group is a straight chain alkyl group having y carbon atoms.

[14] = system: Escherichia Coli; assay: Kill kinetics, planktonic cell cultures; format: cell-based; settings: 2000 μM
Description: (§3) The kill kinetic data is provided in terms of the measured colony forming units per millilitre (CFU/mL) values, and is also provided graphically in FIGS. 9-11.

[15] = system: Methicillin Resistant Staphylococcus Aureus (MRSA); assay: Kill kinetics, planktonic cell cultures; format: cell-based; settings: 1379 μM
Description: as §3

[16] = system: Staphylococcus Epidermidis; assay: Kill kinetics, planktonic cell cultures; format: cell-based; settings: 644 μM
Description: as §3

Compound: CCCCCCCCCCn1cc[n+](C)c1.[Cl-] [C10MIMCl, 1-decyl-3-methylimidazolium chloride]
- MBC ([1]; B. cenocepacia J2315, 99.9% killing): 1290 µM
- MIC ([1]; B. cenocepacia J2315, 24 h at 37° C.): 1290 µM
- MBC ([2]; C. tropicalis NCTC 7393, 99.9% killing): 321 µM
- MIC ([2]; C. tropicalis NCTC 7393, 24 h at 37° C.): 321 µM
- MBC ([3]; E-MRSA 15, 99.9% killing): 321 µM
- MIC ([3]; E-MRSA 15, 24 h at 37° C.): 40 µM
- MBC ([4]; E. coli NCTC 8196, 99.9% killing): 1290 µM
- MIC ([4]; E. coli NCTC 8196, 24 h at 37° C.): 321 µM
- MBC ([5]; K. aerogenes NCTC 7427, 99.9% killing): 1290 µM
- MIC ([5]; K. aerogenes NCTC 7427, 24 h at 37° C.): 643 µM
- MIC ([6]; listed as 1-alkyl-3-methylimidazolium chlorides 10): 2415* μM
- MIC ([6]; Pseudomonas aeruginosa, PA01, 24 h, read-out: MIC): > 1290 µM
- MBC ([6]; Pseudomonas aeruginosa, P. aeruginosa PA01, 99.9% killing): > 1290 µM
- MBC ([7]; P. mirabilis NCTC 12442, 99.9% killing): 1290 µM
- MIC ([7]; P. mirabilis NCTC 12442, 24 h at 37° C.): 1290 µM
- MBC ([8]; S. aureus ATCC 29213, 99.9% killing): 643 µM
- MIC ([8]; S. aureus ATCC 29213, 24 h at 37° C.): 40 µM
- MBC ([9]; S. epidermidis ATCC 12228, 99.9% killing): 644 µM
- MIC ([9]; S. epidermidis ATCC 12228, 24 h at 37° C.): 40 µM
- MIC ([10]; ATCC35984, 24 h, S. epidermidis ATCC 35984, 24 h at 37° C.): 40 µM
- MBC ([10]; ATCC35984, S. epidermidis ATCC 35984, 99.9% killing): 160 µM
- MBC ([11]; 99.9% killing): 643 µM
- MIC ([11]; 24 h at 37° C.): 160 µM
- MIC [12]: 321 µM
- Zone Of Inhibition Radius [13]: 17 mm
- colony forming units per millilitre ([14]; 0 Minutes): 6.25 × 10^7 CFU/mL
- colony forming units per millilitre ([14]; 5 Minutes): 3.33 × 10^2 CFU/mL
- colony forming units per millilitre ([14]; 10 Minutes): 0.00 CFU/mL
- colony forming units per millilitre ([14]; 20 Minutes): 0.00 CFU/mL
- colony forming units per millilitre ([14]; 30 Minutes): 0.00 CFU/mL
- colony forming units per millilitre ([14]; 45 Minutes): 0.00 CFU/mL
- colony forming units per millilitre ([15]; 0 Minutes): 1.10 × 10^8 CFU/mL
- colony forming units per millilitre ([15]; 5 Minutes): 3.67 × 10^7 CFU/mL
- colony forming units per millilitre ([15]; 10 Minutes): 5.00 × 10^6 CFU/mL
- colony forming units per millilitre ([15]; 20 Minutes): 5.75 × 10^4 CFU/mL
- colony forming units per millilitre ([15]; 30 Minutes): 6.67 × 10^2 CFU/mL
- colony forming units per millilitre ([15]; 45 Minutes): 8.33 × 10^1 CFU/mL
- colony forming units per millilitre ([16]; 0 Minutes): 8.96 × 10^7 CFU/mL
- colony forming units per millilitre ([16]; 5 Minutes): 8.58 × 10^5 CFU/mL
- colony forming units per millilitre ([16]; 10 Minutes): 6.92 × 10^4 CFU/mL
- colony forming units per millilitre ([16]; 20 Minutes): 1.06 × 10^4 CFU/mL
- colony forming units per millilitre ([16]; 30 Minutes): 2.42 × 10^3 CFU/mL
- colony forming units per millilitre ([16]; 45 Minutes): 9.17 × 10^2 CFU/mL
